US9592214B2, “Compounds for the treatment of autism in a baby child” (INSERM (INSTITUT NATIONAL DE LA SANTE ET DE LA RECHERCHE …, priority 2010, dated 2017)
Entries after “also recorded” stand apart in the source; their conditions may differ.

Columns and labels:
[1] = system: hippocampal CA3 pyramidal neurons; assay: Whole-cell voltage clamp recordings of sEPSCs in offspring after maternal pretreatment; assay type: in vivo, rat; conditions: P15 VPA rats, maternal bumetanide pretreatment; −70 mV; result in words
Procedure: Standard whole-cell recordings were performed in coronal neocortical rat or mouse brain slices at room temperature (20-22° C.) from the soma of hippocampal CA3 neurons using an EPC-10 (HEKA Elektronik, Germany) amplifier and filtered at 3-10 kHz. The internal solution contained (in mM): 130 K-gluconate, 10 Na-gluconate, 4 NaCl, 4 MgATP, 4 phosphocreatine, 10 HEPES, and 0.3 GTP (pH 7.3 with KOH). Biocytin (final concentration 0.3-0.5%) was added to the pipette solution to label the neurons from which recordings were obtained. Neurons were visualized by using infrared DIC video microscopy. Spontaneous postsynaptic currents were recorded for […] at the reversal potentials for […] currents (−70 mV). It should be specifically noted that all recordings were made in normal ACSF (1.3 mM MgCl2). Stored data were analyzed using the Mini Analysis 6.0.3 (Synaptosoft Inc., Chapell Hill, N.C.) and Origin (MicroCal, Northampton, Mass.) software. To minimize potential sampling bias, the pups from at least three deliveries for each condition were studied. Data are expressed as mean±S.E.M.
Bumetanide (10 μM), Oxytocin (1 μM) and Isoguvacine (2 μM) were directly added to the perfusion solutions. Bumetanide pretreatment (2-2.5 mg/kg) was given to the dams in drinking water. All drugs used were purchased from Sigma. […]

[2] = system: Valproate rat model of autism; assay: Isolation-induced ultrasonic vocalizations; assay type: in vivo
Procedure: Time-mated female Wistar rats at gestational day E7-8 were housed under standard laboratory conditions. The in utero valproic acid (VPA) rodent model of autism spectrum disorders has been previously described in detail. Briefly, the sodium salt of VPA (Sigma-Aldrich) was dissolved in physiological saline solution to a concentration of 300 mg/ml. Pregnant rats received a single intra-peritoneal dose of 600 mg/kg on gestational day 12 (E12). The control dams received a single similar volume injection of saline at the same gestational time-point. Dams were housed individually and allowed to raise their own litters. The offspring were used for experiments on embryonic day 20 (E20) and postnatal (P) days 0, 2, 4, 7, 15 and 30 (after being weaned at P23). Experiments were carried out on offspring of either sex.
To induce ultrasonic vocalizations, […], and were placed into an isolation box (23×28×18 cm) located inside a sound attenuating isolation cubicle (54×57×41 cm; Coulbourn Instruments, Allentown, Pa., USA), and evaluated for ultrasonic vocalizations during a three minutes test. An ultrasound microphone (Avisoft UltraSoundGate Condenser microphone capsule CM16/CMPA, Avisoft Bioacoustics, Berlin, Germany), placed in the roof of the box, was sensitive to frequencies of 10 to 250 kHz. Vocalizations were recorded using the Avisoft Recorder software (version 4.2) with a sampling rate of 250 kHz in 16 bit format. For acoustical analysis, recordings were transferred to SASLab Pro (version 5.2; Avisoft Bioacoustics) and a fast Fourier transformation was conducted (512 FFT-length, 100% frame, Hamming window and 75% time window overlap). The accuracy of call detection was verified manually by an educated user. A Pearson correlation coefficient was computed to assess the relationship between Automatic and Manual analysis. There was 0.99 correlation between the two variables.
(§1) Bumetanide (10 μM), Oxytocin (1 μM) and Isoguvacine (2 μM) were directly added to the perfusion solutions. Bumetanide pretreatment (2-2.5 mg/kg) was given to the dams in drinking water. All drugs used were purchased from Sigma. SSR126768A (Sanofi-Synthelabo) pretreatment (1 mg/kg) was given to the dams in drinking water.

[3] = system: hippocampal slices; assay: Effects of isoguvacine on spike frequency, extracellular field potential recordings in hippocampal slices; assay type: cell-based, rat; conditions: for Effects of isoguvacine on frequency of spikes in extracellular recordings (% of control), mean ± S.E.: VPA rats with maternal bumetanide pretreatment, P15
Procedure: Experiments were performed on fetuses and neonatal rat pups. We removed E20 rats from deeply anesthetized dams [subcutaneous injection of a mixture of xylazine (Rompun 2%; used at 0.05%) and ketamine (Imalgene 1000 used at 50 g/l)]. Hippocampal slices ([…] thick) were prepared using a Microm tissue slicer (International GmbH, Germany) as described previously (Tyzio et al. 2006 Science 314, 1788; Tyzio et al, 2008, Eur J. Neurosci. 27(10):2515-28). Slices were kept in oxygenated (95% O2/5% CO2) artificial cerebrospinal fluid (ACSF) of the following composition (in mM): NaCl 126, KCl 3.5, CaCl2 2.0, MgCl2 1.3, NaHCO3 25, NaH2PO4 1.2 and glucose 11 (pH 7.4) at room temperature (20-22° C.) at least 1 hour before use.
Extracellular field potentials and multi-unit activity (MUA) recordings Recording were made in the hippocampal slices using tungsten wire electrodes (diameter: 50 μm, California Fine Wire, Grover Beach, Calif.) and a low-noise multichannel DAM-8A amplifiers (WPI, GB; […]; gain: ×1000). The signals were digitized using an analogue-to-digital converter (Digidata 1440A, Axon Instruments, USA). pCLAMP 10.1, Clampfit 10.1 (Axon Instruments, USA), MiniAnalysis 6.03 (Synaptosoft, Decatur, Calif.) and Origin 7.5 (Microcal Software, USA) programs were used for the acquisition and analysis of the synaptic activities. Sampling interval per signal was 100 microseconds (10 kHz).
as §1

[4] = P4 VPA rats + maternal BUM pretreatment
[5] = P4 control rats + maternal BUM pretreatment

With `CCCCNc1cc(C(=O)O)cc(S(N)(=O)=O)c1Oc1ccccc1` [bumetanide] the sEPSCs frequency [1] was “decreases; also recorded: significantly reduced”, the “behavioral deficit (smaller number and shorter total duration of calls)” value ([2]; P4 VPA offspring, maternal bumetanide pretreatment, result in words) was “rescued this behavioral deficit” and the “Number of calls, isolation-induced USVs mean ± S.E.M” value [2, 4] was 56 ± 25 (n = 20). The “Total duration of calls, isolation-induced USVs mean ± S.E.M” value [2, 4] was 4 ± 2 (n = 20), the “Number of calls, isolation-induced USVs mean ± S.E.M” value [2, 5] was 62.6 ± 27.4 (n = 18) and the “Total duration of calls, isolation-induced USVs mean ± S.E.M” value [2, 5] was 4.6 ± 2.3 (n = 18). For the same compound, the “excitatory actions of the GABAAR agonist isoguvacine” value ([3]; P15 VPA offspring, maternal bumetanide pretreatment, result in words) was “suppressed the excitatory actions”, the “Effects of isoguvacine on frequency of spikes in extracellular recordings (% of control), mean ± S.E.” value [3] was 82.8±10.7 % of control and the “Effects of isoguvacine on frequency of spikes in extracellular recordings (% of control), mean ± S.E.” value ([3]; listed as BUM) was 82.8 ± 10.7 (n = 9), P < 0.05 % of control.
